Structures can show the parent of a compound that is named as a salt.
Legend:
[1] = test system: Rabbit Intermittent Claudication Model (injured limb of the high cholesterol chow-loaded rabbit); test: Rabbit intermittent claudication model: recovery time of tissue oxygen saturation after exercise (near infrared spectrophotometer); assay type: in vivo, male New Zealand White Rabbits; conditions: for Recovery Time of Tissue Oxygen Saturation: 3 days after operation, injured limb, high cholesterol chow-loaded rabbit; for Effect on the recovery time of the tissue oxygen saturation (in words): vs control, drug of the invention 3 mg/kg, pentoxifylline 300 mg/kg, cilostazol 100 mg/kg, sarpogrelate hydrochloride 300 mg/kg
Source text: To male New Zealand White Rabbits, there was given 1% cholesterol-containing RC4 (available from ORIENTAL KOBO Co., Ltd.) chow over 4 weeks (100 g/day/animal) to obtain a high cholesterol-loaded group (8 animals), while normal RC4 (available from ORIENTAL KOBO Co., Ltd.) chow was given to a group of such animals (normal feed-loaded group: 6 animals). The groins of these animals belonging to these two groups were incised in their supine position, under the anesthesia with ketamine and xylazine, followed by exposing the right femoral artery and then repeating, three times, the balloon injury treatment, which comprises the steps of inserting a Fogarty's balloon catheter in a length of 7 cm into the artery, expanding the balloon catheter to a diameter of 5 mm within the right iliac artery and then pulling out the catheter while the balloon catheter was still in the expanded state and finally ligating the right femoral artery. After 3 days from the operation, the both gluteal regions and the posterior of the lower limbs were dissected in the supine position of the animal under the anesthesia with ketamine and xylazine. The probe of a near infrared spectrophotometer was directly fitted to the interior of the both side gastrocnemius muscles, followed by application of electrical stimulation at 1 Hz to the sciatic nerves on both sides for 2 minutes as exercise loads.
After the application of exercise, these animals were kept quiet rest, followed by monitoring the process in which the degree of tissue oxygen saturation reduced during exercise was recovered, using an multi-wavelength-type near infrared spectrophotometer to thus obtain the time required for the recovery of the degree of tissue oxygen saturation in the both limbs. As such multi-wavelength-type near infrared spectrophotometer, there was used MCPD-2000 available from OTSUKA ELECTRONICS Co., Ltd., which had been improved in such a manner that the device could almost simultaneously detect the tissue oxygen saturation for the both side gastrocnemius muscles. In this respect, the distance between the light guide and detector of near infrared light rays was set at a level of 5 mm. A ½ recovered tissue oxygen saturation (½ StO2), which was an intermediate value of the tissue oxygen saturation observed after the application of the exercise (the minimum tissue oxygen saturation after exercise) and the tissue oxygen saturation observed after the recovery of exercise (the maximum tissue oxygen saturation after exercise) and then the recovery time was defined to be the time required for arriving at the level of ½ StO2 after the end of exercise-application.
To male New Zealand White Rabbits, there was given 1% cholesterol-containing RC4 (available from ORIENTAL KOBO Co., Ltd.) chow over 4 weeks (100 g/day/animal), followed by dividing these animals into two groups in such a manner that the total cholesterol levels in the plasma were identical to one another and then subjecting these two groups to treatments identical to those used in the foregoing model.
To these animals, there was orally administered, once a day, 1-formyl-N-(2-(4-(5H-dibenzo [a, d] cyclohepten-5-ylidene)-1-piperidinyl)) ethyl isonipecotic acid amide represented by the formula (2) after dissolving it in water in an amount of 3 mg/kg over the term extending from the day following the operation to the day on which the near infrared spectrophotometric measurement was initiated. On the other hand, distilled water was orally administered to the control group once a day. After 3 days from the operation, the recovery time of the tissue oxygen saturation after exercise was determined using a near infrared spectrophotometer.
The same procedures used in Example 1 were repeated except for using 300 mg/kg of pentoxifylline in place of the compound represented by the formula (2) to thus carry out the determination. […]

[2] = test system: Rat Intermittent Claudication Model; test: Rat intermittent claudication model (lauric acid injection): maximum running/walking time on treadmill; assay type: in vivo, male SD rats; conditions: for Maximum Walking Time, recovery rate relative to day 1 (defined to be 100), After 1 day: after 1 day from lauric acid injection (baseline = 100); for Maximum Walking Time, recovery rate relative to day 1 (defined to be 100), After 1 day / Maximum Walking Time, recovery rate relative to day 1 (= 100), After 3 days / Maximum Walking Time, recovery rate relative to day 1 (= 100), After 7 days / Maximum Walking Time, recovery rate relative to day 1 (= 100), After 14 days / Maximum Walking Time, recovery rate relative to day 1 (= 100), After 21 days: formula (2) hydrochloride 3 mg/kg/day, pentoxifylline 60 mg/kg/day, oral; for Maximum Walking Time, recovery rate relative to day 1 (= 100), After 3 days: after 3 days from lauric acid injection, control 132; for Maximum Walking Time, recovery rate relative to day 1 (= 100), After 7 days: after 7 days from lauric acid injection, control 177; for Maximum Walking Time, recovery rate relative to day 1 (= 100), After 14 days: after 14 days from lauric acid injection, control 198; for Maximum Walking Time, recovery rate relative to day 1 (= 100), After 21 days: after 21 days from lauric acid injection, control 215
Description: (§1) Using an improved model of Corcico et al. (Corcico N. Cardiovasc. Drugs Ther., 1993, 7:241-251), male SD rats were made run on a rat treadmill (available from NATSUME SEISAKUSHO) at a speed of 10 m/min, followed by stepwise raising the running speed by 5 m/min every 3 minutes to thus determine the time (the maximum running time) required till the rats could not run any more and to thus evaluate the running ability of each animal. On the following day, these rats were anesthetized with pentobarbital and then 3.5 mg/ml of sodium laurate solution (available from SIGMA Company; dissolved in a 0.5% glucose aqueous solution) was injected into the right and left femoral arteries at a dose of 100 μl/leg to thus induce artificial intermittent claudication in the animals.
After 1, 3, 7, 14 and 21 days from the injection of the sodium laurate solution, the maximum running time was determined according to the method described above.
(§2) The same procedures used in Reference Example 2 were repeated using male SD rats (15 animals) to thus establish a rat intermittent claudication model. On the day following the lauric acid-injection, each animal was inspected for the maximum running time and these animals were divided into three groups so that the running abilities of these groups were almost identical to one another. To the first group (drug-administered group), there was orally administered, once a day, 3 mg/kg of hydrochloride of the compound represented by the formula (2) dissolved in distilled water over the term extending from the day following the lauric acid injection to 21st day, while 60 mg/kg of pentoxifylline (available from SIGMA Company) dissolved in distilled water was orally administered to the second group once a day as a comparative example. To the third group (control group), there was orally administered distilled water once a day. After 3, 7, 14 and 21 days from the lauric acid-injection, the maximum running time of each animal was determined to thus evaluate the recovery rate relative to the maximum walking time observed after the day following the lauric acid-injection (this was defined to be 100). In addition, the presence of any lesion on the limbs was simultaneously confirmed. The presence of any lesion on the lower limb was rated according to the following 6 evaluation criteria: 0: normal and all of the 5 toes could widely be opened; 1: limbs could look upward, but the toes could not be opened; 2: the limbs looked downward; 3: not less than 3 claws were necrosed; 4: not less than 3 toes were necrosed; and 5: not less than 3 toes were left out.

[3] = test system: Rat Intermittent Claudication Model; test: Rat intermittent claudication model (lauric acid injection): score for lower limb lesion; assay type: in vivo, male SD rats; conditions: for Score for Lower Limb Lesion, After 1 day / Score for Lower Limb Lesion, After 3 days / Score for Lower Limb Lesion, After 7 days / Score for Lower Limb Lesion, After 14 days / Score for Lower Limb Lesion, After 21 days: score 0-5, formula (2) hydrochloride 3 mg/kg/day, pentoxifylline 60 mg/kg/day, oral; for Score for Lower Limb Lesion, After 1 day: after 1 day from lauric acid injection (baseline), control 4.0; for Score for Lower Limb Lesion, After 3 days / Score for Lower Limb Lesion, After 7 days / Score for Lower Limb Lesion, After 14 days: control 3.8; for Score for Lower Limb Lesion, After 21 days: control 3.4
Description: as §1, §2

| Compound | Recovery Time of Tissue Oxygen Saturation ([1]; 100 mg/kg orally once a day, control 2.8 ± 0.97) | Effect on the recovery time of the tissue oxygen saturation (in words) [1] | Maximum Walking Time, recovery rate relative to day 1 (defined to be 100), After 1 day [2] | Maximum Walking Time, recovery rate relative to day 1 (= 100), After 3 days [2] | Maximum Walking Time, recovery rate relative to day 1 (= 100), After 7 days [2] | Maximum Walking Time, recovery rate relative to day 1 (= 100), After 14 days [2] | Maximum Walking Time, recovery rate relative to day 1 (= 100), After 21 days [2] | Recovery Time of Tissue Oxygen Saturation ([1]; 3 mg/kg orally once a day, control 3.8 ± 0.46) | Score for Lower Limb Lesion, After 1 day [3] | Score for Lower Limb Lesion, After 3 days [3] | Score for Lower Limb Lesion, After 7 days [3] | Score for Lower Limb Lesion, After 14 days [3] | Score for Lower Limb Lesion, After 21 days [3] | Effect on the maximum walking time (in words) ([2]; vs control group, formula (2) hydrochloride 3 mg/kg (after 7 days), pentoxifylline 60 mg/kg) | Recovery Time of Tissue Oxygen Saturation ([1]; 300 mg/kg orally once a day, control 3.8 ± 1.28) | Effect on the development of lesions of the lower limbs (in words) ([3]; vs control group, formula (2) hydrochloride 3 mg/kg, pentoxifylline 60 mg/kg) | Recovery Time of Tissue Oxygen Saturation ([1]; 300 mg/kg (table) orally once a day, control 3.9 ± 1.08) |
| --- | --- | --- | --- | --- | --- | --- | --- | --- | --- | --- | --- | --- | --- | --- | --- | --- | --- |
| O=C1CCc2cc(OCCCCc3nnnn3C3CCCCC3)ccc2N1 [Cilostazol, cilostazol] | 3.5 ± 0.52 min | does not show any substantial reduction of the recovery time |  |  |  |  |  |  |  |  |  |  |  |  |  |  |  |
| O=CN1CCC(C(=O)NCCN2CCC(=C3c4ccccc4C=Cc4ccccc43)CC2)CC1 [Compound of Formula (2), 1-formyl-N-(2-(4-(5H-dibenzo[a,d]cyclohepten-5-ylidene)-1-piperidinyl))-ethyl-isonipecotic acid amide] |  |  | 100 | 189 | 256 | 252 | 317 | 2.0 ± 0.40 min | 4.0 | 3.2 | 2.2 | 1.7 | 1.5 |  |  |  |  |
| CC(=O)CCCCn1c(=O)c2c(ncn2C)n(C)c1=O [Pentoxifylline, pentoxifylline] |  | did not show any reduction in the recovery time | 100 | 178 | 189 | 211 | 249 |  | 4.0 | 3.7 | 3.7 | 3.3 | 2.5 | had a tendency of increasing the maximum walking time | 7.1 ± 1.65 min | the effect was still insufficient |  |
| COc1cccc(CCc2ccccc2OCC(CN(C)C)OC(=O)CCC(=O)O)c1 (centres unmarked) [Sarpogrelate · HCl, sarpogrelate hydrochloride] |  | did not show any reduction of the recovery time |  |  |  |  |  |  |  |  |  |  |  |  |  |  | 3.4 ± 1.33 min |

Source: patent US6476049B2, “Therapeutic agent for intermittent claudication” (Ajinomoto Co., Inc., priority 1999, dated 2002)
